Series [1] deals with kallikrein pruriogeneic animal. In words: Antipruritic test of kallikrein pruriogeneic animal (therapeutical test). The series is classed as in vivo, Hartley-strain male guinea pigs. An excerpt:
There is already known a pruriogeneic substance other than bradyokinin which cannot be inhibited by antihistamines; namely, kallikrein (International Journal of Dermatology, Vol. 14, pages 465 - 484, 1975).
Using healthy Hartley-strain male guinea pigs, bradykinin, which is a pruriogeneic substance, was intradermally administered at the side abdominal part to obtain a pruriogeneic animal.
The pruriginous behaviors were rated according to the standards shown below and represented as pruriginous activity.
For six guinea pigs of one group, the above-mentioned behavior observation was conducted by three or more members at the same time for 20 minutes, and the pruriginous activity (score) determined as an average value ± standard deviation of the evaluation scores, and the antripruritic effect judged by the significance difference test with the Vehicle control group according to the Student's T test.
Healthy male guinea pigs (weighing 450 - 600 g) depilated at the right abdominal side part by electrical clippers on the previous day were divided into three groups of six.
Using the same test method as in 4-1, animals were divided into four groups of 6.

Series [2] concerns histamine pruriogeneic animal. In words: Antipruritic effect test of histamine pruriogeneic animal (therapeutical test). As to conditions: Table 10; 3 wt.%, 0.1 ml applied five minutes after histamine 50 µg/0.05 ml intradermal; vehicle control 16.6 ± 0.5. Type of series: in vivo, Hartley-strain male guinea pigs.
For series [3], the system named is pruritus of bradykinin. Put plainly: Antipruritic effect test (therapeutical test), bradykinin pruriogeneic animal, sample applied 5 minutes after bradykinin. The series is classed as in vivo, Hartley-strain male guinea pigs. The note with it: 1 wt.%. Here is the method:
(§1) Using healthy Hartley-strain male guinea pigs, bradykinin, which is a pruriogeneic substance, was intradermally introduced at the side abdominal part to obtain a pruriogeneic animal.
(§2) The pruriginous behaviors were rated according to the standards shown below, and represented as pruriginous activity.
(§3) For four or six guinea pigs of one group, the above-mentioned behavior observation was conducted by three or more members at the same time for 20 minutes, and the pruriginous activity (score) determined as an average value ± standard deviation of the evaluation scores, and the antripruritic effect judged by the significance difference test with the Vehicle control group according to the Student's T test.
Healthy guinea pigs (weighing 450 - 600 g) depilated at the right abdominal side part on the previous day were divided into three groups of 6.
Using the same test methods as described above, the zinc picolinate preparation and the crotamiton preparation each of 1% concentration were examined by comparison with the Vehicle control group.

The target in a further series is T1, plasmin (Homo sapiens, UniProt P00747).
T1 construct: purchased Sigma
T1 sequence (P00747 581-810 limits assumed, species assumed): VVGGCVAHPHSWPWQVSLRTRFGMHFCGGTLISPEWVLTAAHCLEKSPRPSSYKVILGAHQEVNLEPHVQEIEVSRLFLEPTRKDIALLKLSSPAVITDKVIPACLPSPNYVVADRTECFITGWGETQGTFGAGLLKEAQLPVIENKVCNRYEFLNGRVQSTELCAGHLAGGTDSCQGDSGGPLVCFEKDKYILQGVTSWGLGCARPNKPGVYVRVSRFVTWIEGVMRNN
T1 sequence (P00747 97-580 limits assumed, species assumed): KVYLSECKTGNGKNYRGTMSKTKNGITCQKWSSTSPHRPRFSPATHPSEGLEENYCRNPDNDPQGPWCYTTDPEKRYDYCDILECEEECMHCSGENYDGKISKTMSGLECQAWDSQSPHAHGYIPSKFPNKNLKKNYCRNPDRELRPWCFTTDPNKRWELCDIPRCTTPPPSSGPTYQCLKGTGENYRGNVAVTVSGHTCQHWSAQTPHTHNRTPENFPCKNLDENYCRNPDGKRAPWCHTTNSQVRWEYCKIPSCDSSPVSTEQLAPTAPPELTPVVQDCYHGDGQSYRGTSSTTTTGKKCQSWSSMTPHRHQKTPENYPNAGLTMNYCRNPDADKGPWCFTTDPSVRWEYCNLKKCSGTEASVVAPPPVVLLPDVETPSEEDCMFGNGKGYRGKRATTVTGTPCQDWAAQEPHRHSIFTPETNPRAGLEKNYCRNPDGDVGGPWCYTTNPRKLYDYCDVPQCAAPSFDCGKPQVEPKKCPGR
Put plainly: Antiplasmin activity, fibrin plate method. As to conditions: 50% inhibition of fibrinolytic activity by plasmin; pre-incubation 37°C 30 minutes. Type of series: biochemical. The procedure: The antiplasmin active action was determined as the sample amount necessary for a 50% inhibition (IC₅₀: mg/ml) from the inhibition ratio of the fibrinolytic activity by plasmin, by using the fibrin plate method.
A fibrin plate was prepared according to the method of Warren et al. (Hemostasis Vol. 4, page 110, 1975) by dissolving under heating 100 mg of agarose in 5 ml of a 0.01 M phosphate buffer supplemented with 0.15 M sodium chloride, followed by cooling to 50°C. In this solution was dissolved 10 mg of a plasminogen free fibrinogen (Daiichi Kagaku Yakuhin), and after 0.1 ml of a thrombin solution (100 units/ml, Mochida Seiyaku) was dropwise added to the solution, the mixture was immediately poured into a laboratory dish (diameter 9 cm, Terumo) and left to cool, to be thereby solidified. A plasminogen free fibrin plate was prepared. By forming a well 6 mm in diameter at the center of the dish.

Series [4] relates to pruritus of bradykinin. In words: Antipruritic effect test, bradykinin pruriogeneic animal, sample applied immediately before bradykinin. The series is classed as in vivo, Hartley-strain male guinea pigs. The note with it: bradykinin 10 µg/0.1 ml. Here is the method:
as §1, §2, §3
Immediately thereafter, bradykinin 10 µg/0.1 ml was subcutaneously administered at the same applied site, and the score (average value ± standard deviation) of pruriginous activity by pruriginous behaviors was examined by comparison.
As described above in (1), healthy male guinea pigs (weighing 450 - 600 g) depilated at the right abdominal side part by electrical clippers on the previous day were divided into four groups each of four, of which one group was externally applied at the right abdominal side part with only the vehicle for external application (Vehicle control), and other groups with respective preparations of a mixture group of 1.24% by weight of picolinic acid and 2.88% by weight of zinc sulfate corresponding respectively to the picolinic acid amount and the zinc amount of 3% by weight of zinc picolinate, a 2.88% by weight zinc sulfate single substance group and a 3.17% by weight of zinc pyrithione group corresponding to the zinc amount in each 0.1 ml amount. Immediately thereafter, bradykinin 10 µg/0.1 ml was subcutaneously administered at the same applied site, and the score of pruriginous activity by pruriginous behaviors was examined by comparison.

The next series deals with bradykinin. Put plainly: Antipruritic effect test (therapeutical test) of chelated zinc compounds other than zinc picolinate, bradykinin. Type of series: in vivo, guinea pigs. The note with it: 1% (by weight), 0.1 ml applied 5 minutes after bradykinin 50 µg/0.5 ml intradermal; average score compared with Vehicle control group; 85% or less judged effective. The procedure:
Healthy male guinea pigs (weighing 450 - 600 g) depilated at the right abdominal side part by electrical clippers on the previous day were divided into three groups of 6. At the right abdominal side part was intradermally administered 50 µg/0.5 ml of bradykinin, and 5 minutes later, one group was externally applied at the site where bradykinin had been applied with only the vehicle for external application (Vehicle control), and other groups with each 1% (by weight) concentration of samples in each 0.1 ml amount, and the average value of the scores of antipruritic activity by pruriginous behaviors was examined by comparison with the Vehicle control group.
The antipruritic effect was judged to be effective for an average value of the scores of 85% or less.

In series [5] the test system is rats (Sprague Dawley strain). Put plainly: Acute toxicity tests. Type of series: in vivo. Here is the method: First, the toxicity of the antipruritic agent according to the present invention was examined. Acute toxicity tests were conducted by using healthy 5 to 6 weeks old male and female rats (Sprague Dawley strain). An oral administration was made by suspending zinc picolinate in 20% carboxymethyl cellulose, and a subcutaneous administration was made by suspending zinc picolinate in 10% carboxylmethyl cellulose.

Series [6] deals with skin (Futat skin and Abraded skin). As to conditions: rabbit, in vivo.
Method: The test was conducted according to the method of the FDA method (U.S. Food and Drug Administration method).
Eight Japanese White species rabbits weighing 2.3 to 3 kg were depilated at the back by electrical clippers and divided into two groups of four, one group being as such (Futat skin) and the other group having an abrasion made at the testing side (Adraded skin), and were fixed on a fixer. An amount of 0.3 ml of the test substance was applied to the skin by a sticking plaster for an animal test having a lint cloth 25 mm in diameter. After 24 hours, the sticking plaster was removed, and the reaction of the skin evaluated in terms of the degrees of erythema and edema, according to the following standards. The judgement was again performed 72 hours later.
The skin primary irritation evaluation score is shown by an average value obtained by adding average values of a judgement of the formation of erythema and edema after 24 and 72 hours for four rabbits with Futat skin and Abraded skin, and dividing the value by the animal test sample number of 4.
The standards of the evaluation score (average value) of the skin safety is as shown below. Evaluation score less than 2: slight irritation or substantially no irritation Evaluation score of 2 - 5: moderate irritation Evaluation score of 5 or more: strong irritation The results are shown in Table-2.
[7] abbreviates: Table 9, 3 wt.%, 0.1 ml applied after kallikrein intradermal, vehicle control 18.68 ± 2.06.
Where [8] appears, read: Table 7, same test methods as above (therapeutical test, bradykinin), vehicle control 35.4 ± 3.1.
Setting [9] is: Table 5, 0.1 ml applied 5 minutes after bradykinin 50 µg/0.05 ml intradermal, vehicle control 30.1 ± 3.6.

Where a name gives a salt, the structure may show the parent alone. Where only a bound is given, the exact number is not on record here.

Turning to `CC=CC(=O)N(CC)c1ccccc1C` [Crotamiton, reference compound], the “Pruritic activity/20 min.” value in [1] (setting [7]) was 15.15 ± 1.92; in series [2] it was 18.9 ± 2.5; in the series on pruritus of bradykinin [3] (setting [8]) it was 29.3 ± 3.3.
As for `CN(C)CCOC(c1ccccc1)c1ccccc1` [Diphenhydramine hydrochloride, reference compound], the IC₅₀ result against plasmin was “No action at 10 mg/ml”.
In the case of `CN(C)CCOC(c1ccccc1)c1ccccc1` [Diphenhydramine, reference compound], the “Pruritic activity/20 min.” value turned out to be 17.00 ± 1.26 in series [1] (setting [7]); 12.4 ± 0.5 in series [2]; 36.9 ± 3.0 with pruritus of bradykinin [4] (Table 4, 1 wt.%, 0.1 ml external, mean ± SD, vehicle control 45.7 ± 5.7); 27.9 ± 2.0 with pruritus of bradykinin [3] (setting [9]).
In the case of zinc 3-hexyloxypicolinate [J], in the series with bradykinin, the “Pruritic activity score (%)” value turned out to be 75.7%.
Consider zinc 3-hydroxypicolinate, for which the “Pruritic activity score (%)” value in the series on bradykinin stood at 58.0%.
Turning to “zinc 3-methylpicolinate [Compound No. B]”, the “Pruritic activity score (%)” value with bradykinin is listed as 65.9%.
For “zinc 3-propoxypicolinate [Compound No. D]”, the “Pruritic activity score (%)” value with bradykinin worked out at 41.2%.
Consider “zinc 3-undecylpicolinate [Compound No. M]”, for which, in the series with bradykinin, the “Pruritic activity score (%)” value was 70.1%.
With “zinc 4-carboxypicolinate [Compound No. S]”, the “Pruritic activity score (%)” value with bradykinin is reported as 66.3%.
The same measure, in the same setting: the value for “zinc 4-chloropicolinate [Compound No. R]” was 18.5%; that for “zinc 4-methylpicolinate [Compound No. C]” was 74.1%; that for zinc 4-nitropicolinate [Compound No. Q] was 58.3%.
As for “zinc 4-t-butylpicolinate [Compound No. I]”, in the series on bradykinin, the “Pruritic activity score (%)” value came to 63.3%.
As for “zinc 4-undecylpicolinate [Compound No. N]”, the “Pruritic activity score (%)” value in the series with bradykinin is given as 64.4%.
“zinc 5-(2-ethylhexyloxy)picolinate [Compound No. L]”: the “Pruritic activity score (%)” value in the series with bradykinin is 60.3%.
For the compound “zinc 5-butoxypicolinate [Compound No. G]”, the “Pruritic activity score (%)” value in the series on bradykinin was found to be 66.2%.
Turning to “zinc 5-propoxypicolinate [Compound No. E]”, the “Pruritic activity score (%)” value in the series with bradykinin was determined as 81.5%.
Turning to “zinc 6-butoxypicolinate [Compound No. H]”, the “Pruritic activity score (%)” value with bradykinin came to 71.8%.
Take “zinc 6-hexyloxypicolinate [Compound No. K]”: in the series with bradykinin, the “Pruritic activity score (%)” value came out at 74.8%.
“zinc 6-undecylpicolinate [Compound No. O]”: the “Pruritic activity score (%)” value in the series with bradykinin is on record as 65.0%.
As to zinc picolinate, the “amount soluble in water as such” value is no more than 0.5 % by weight. The “Pruritic activity/20 min.” value in series [1] (Table 8, 0.01 wt.%, 0.1 ml applied five minutes after kallikrein 25 units/0.05 ml intradermal, vehicle control 19.95 ± 2.41) turned out to be 12.95 ± 0.95. In addition, the “Pruritic activity/20 min.” value in series [1] (Table 8, 10 wt.%, 0.1 ml applied five minutes after kallikrein 25 units/0.05 ml intradermal, vehicle control 19.95 ± 2.41) worked out at 12.85 ± 0.70. Also, the “Pruritic activity/20 min.” value in series [1] (setting [7]) is recorded as 12.95 ± 0.95. The “Pruritic activity/20 min.” value in [2] stood at 7.4 ± 0.5. The “Pruritic activity/20 min.” value in the series with pruritus of bradykinin [4] (Table 4, 0.01 wt.%, 0.1 ml external, mean ± SD, vehicle control 45.7 ± 5.7) is listed as 17.5 ± 2.4. Besides, in the series on pruritus of bradykinin [4] (Table 4, 10 wt.%, 0.1 ml external, mean ± SD, vehicle control 45.7 ± 5.7), the “Pruritic activity/20 min.” value was found to be 15.5 ± 1.6. The “Pruritic activity/20 min.” value in the series with pruritus of bradykinin [4] (Table 6, 3 wt.%, 0.1 ml, vehicle control 40.1 ± 6.7) is on record as 17.7 ± 1.4^*1. Besides, in series [5] (Female rats, Oral), the LD₅₀ value is given as greater than 2000 mg/kg. Also, the Lethality in [5] (Female rats, Oral, dose 200 mg/kg, suspended in 20% carboxymethyl cellulose) is recorded as 0/5. Further, in series [5] (Female rats, Subcutaneous, dose 70 mg/kg), the Lethality is on record as 0/5. Moreover, the Lethality in [5] (Female rats, Subcutaneous, dose 91 mg/kg) was 0/5. Also, the Lethality in [5] (Female rats, Subcutaneous, dose 118 mg/kg) is reported as 2/5. For the same compound, in [5] (Female rats, Subcutaneous, dose 154 mg/kg), the Lethality is reported as 5/5. In series [5] (Female rats, Subcutaneous, dose 200 mg/kg), the Lethality is reported as 5/5. In addition, the LD₅₀ value in series [5] (Female rats, Subcutaneous, suspended in 10% carboxylmethyl cellulose) came to 122 mg/kg. The compound further yielded an LD₅₀ value in series [5] (Male rats, Oral) greater than 2000 mg/kg. For the same compound, in series [5] (Male rats, Oral, dose 200 mg/kg, suspended in 20% carboxymethyl cellulose), the Lethality is listed as 0/5. In addition, the Lethality in [5] (Male rats, Subcutaneous, dose 70 mg/kg) is 0/5. Further, the Lethality in series [5] (Male rats, Subcutaneous, dose 91 mg/kg) is recorded as 1/5. Further, in series [5] (Male rats, Subcutaneous, dose 118 mg/kg), the Lethality is listed as 2/5. Further, the Lethality in [5] (Male rats, Subcutaneous, dose 154 mg/kg) is listed as 4/5. The Lethality in series [5] (Male rats, Subcutaneous, dose 200 mg/kg) is 5/5. In series [5] (Male rats, Subcutaneous, suspended in 10% carboxylmethyl cellulose), this compound gave an LD₅₀ value of 121 mg/kg. Besides, in series [6], the “Skin primary irritation evaluation score” value stood at 1.6. In addition, the “Pruritic activity/20 min.” value in the series on pruritus of bradykinin [3] (setting [9]) amounted to 14.9 ± 0.3. In addition, in the series on pruritus of bradykinin [3] (setting [8]), the “Pruritic activity/20 min.” value is recorded as 12.7 ± 0.7. This compound also returned an IC₅₀ against plasmin of 2.3 mg/mL.
For “zinc picolinate N-oxide [Compound No. P]”, in the series on bradykinin, the “Pruritic activity score (%)” value is on record as 85.0%.
As for zinc pyrithione [reference compound], the “Pruritic activity/20 min.” value in the series on pruritus of bradykinin [4] (Table 6, 3.17 wt.%, 0.1 ml, vehicle control 40.1 ± 6.7) is given as 43.4 ± 6.4.
For the compound zinc sulfate [reference compound], in the series on pruritus of bradykinin [4] (Table 6, 2.88 wt.%, 0.1 ml, vehicle control 40.1 ± 6.7), the “Pruritic activity/20 min.” value was 33.7 ± 5.2.
